Source: ChEMBL document CHEMBL3046363, “Synthesis, fungicidal, and insecticidal activities of beta-Methoxyacrylate-containing N-acetyl pyrazoline derivatives” (J Agric Food Chem, 2008)
Converted amounts (≈) assume the structure as drawn. The source made the active and inactive calls. No cut-off for these calls is given here.

Key:
[1] = system: Pseudoperonospora cubensis; experiment: In vivo fungicidal activity against Pseudoperonospora cubensis infected in cucumber plants assessed as inhibition of disease symptoms at 200 ug/ml treated one day prior to fungal spore inoculation measured after one week; type: functional
Botrytis cinerea = experiment: In vivo fungicidal activity against Botryotinia fuckeliana infected in cucumber plants assessed as inhibition of disease symptoms at 200 ug/ml treated one day prior to fungal spore inoculation measured after one week; type: functional, organism-based
Podosphaera fuliginea [2] = experiment: In vivo fungicidal activity against Podosphaera fuliginea infected cucumber plants assessed as inhibition of disease symptoms at 200 ug/ml treated one day prior to fungal spore inoculation measured after one week; type: functional
Rhizoctonia solani = experiment: In vivo fungicidal activity against Rhizoctonia solani infected in cucumber plants assessed as inhibition of disease symptoms at 200 ug/ml treated one day prior to fungal spore inoculation measured after one week; type: functional, organism-based
Aphis medicaginis = experiment: In vivo insecticidal activity against Aphis medicaginis assessed as mortality at 1 g/l after 72 hr; type: functional, organism-based
Nilaparvata lugens = experiment: In vivo insecticidal activity against fifth instar larval stage of Nilaparvata lugens (brown planthopper) in […] rice seedlings assessed as mortality at 1 g/l treated for 5 secs before larval infestation measured after 72 hr; type: functional, organism-based
Mythimna separata [3] = experiment: In vivo insecticidal activity against Mythimna separata (Oriental armyworm) assessed as mortality at 500 ug/ml after 72 hr; type: functional
Tetranychus cinnabarinus = experiment: In vivo insecticidal activity against Tetranychus cinnabarinus (carmine spider mite) assessed as mortality at 500 ug/ml after 72 hr; type: functional
[4] = system: Pseudoperonospora cubensis; experiment: In vivo fungicidal activity against Pseudoperonospora cubensis infected in cucumber plants assessed as inhibition of disease symptoms treated one day prior to fungal spore inoculation measured after one week; type: functional, organism-based
Podosphaera fuliginea [5] = experiment: In vivo fungicidal activity against Podosphaera fuliginea infected cucumber plants assessed as inhibition of disease symptoms treated one day prior to fungal spore inoculation measured after one week; type: functional, organism-based
Mythimna separata [6] = experiment: In vivo insecticidal activity against Mythimna separata (Oriental armyworm) assessed as mortality after 72 hr; type: functional

| SMILES | inhibition in vivo at 200 µg/mL [1] [%] | inhibition (Botrytis cinerea) | inhibition in vivo at 200 µg/mL (Podosphaera fuliginea [2]) [%] | inhibition (Rhizoctonia solani) | mortality (Aphis medicaginis) | mortality (Nilaparvata lugens) | mortality at 500 µg/mL (Mythimna separata [3]) [%] | mortality at 500 µg/mL (Tetranychus cinnabarinus) [%] | IC50 [4] [µg/mL] | IC50 (Podosphaera fuliginea [5]) [µg/mL] | LC50 (Mythimna separata [6]) [µg/mL] |
| --- | --- | --- | --- | --- | --- | --- | --- | --- | --- | --- | --- |
| CO/C=C(/C(=O)OC)c1ccccc1COc1ccc(C2=NN(C(C)=O)C(c3ccc(F)cc3)C2)cc1 (stereo not drawn) | < 60 | inactive | < 60 | inactive |  |  |  |  |  |  |  |
| CCOc1ccc(C2CC(c3cccc(OCc4ccccc4/C(=C\OC)C(=O)OC)c3)=NN2C(C)=O)cc1 (stereo not drawn) | 100 | inactive | < 60 | inactive |  |  |  |  |  |  |  |
| CO/C=C(/C(=O)OC)c1ccccc1COc1cccc(C2=NN(C(C)=O)C(c3cccc(F)c3)C2)c1 (stereo not drawn) | < 60 | inactive | < 60 | inactive |  |  |  |  |  |  |  |
| CO/C=C(/C(=O)OC)c1ccccc1COc1ccc(C2=NN(C(C)=O)C(c3ccc(Cl)cc3)C2)cc1 (stereo not drawn) | 100 | inactive | < 60 | inactive |  |  |  |  |  |  |  |
| CO/C=C(/C(=O)OC)c1ccccc1COc1ccccc1C1=NN(C(C)=O)C(c2ccc(OC)c(OC)c2)C1 (stereo not drawn) | < 60 | inactive | < 60 | inactive |  |  |  |  |  |  |  |
| CO/C=C(/C(=O)OC)c1ccccc1COc1cccc(C2=NN(C(C)=O)C(c3cccs3)C2)c1 (stereo not drawn) | 100 | inactive | < 60 | inactive |  |  |  |  |  |  |  |
| CO/C=C(/C(=O)OC)c1ccccc1COc1ccc(C2=NN(C(C)=O)C(c3ccc(OC)cc3)C2)cc1 (stereo not drawn) | < 60 | inactive | < 60 | inactive |  |  |  |  |  |  |  |
| CO/C=C(/C(=O)OC)c1ccccc1COc1cccc(C2=NN(C(C)=O)C(c3ccc(Cl)cc3)C2)c1 (stereo not drawn) | ≥ 60 | inactive | < 60 | inactive | inactive | inactive | 100 | < 60 |  |  |  |
| CO/C=C(/C(=O)OC)c1ccccc1COc1cccc(C2=NN(C(C)=O)C(c3ccc4c(c3)OCO4)C2)c1 (stereo not drawn) | 100 | inactive | ≥ 90 | inactive | inactive | inactive | 100 | < 60 | 26.6 (≈ 50.3 µM) | 57.6 (≈ 109 µM) | 26.6 (≈ 50.3 µM) |
| CO/C=C(/C(=O)OC)c1ccccc1COc1ccc(C2=NN(C(C)=O)C(c3ccc(C)c(C)c3)C2)cc1 (stereo not drawn) | < 60 | inactive | < 60 | inactive |  |  |  |  |  |  |  |
| CO/C=C(/C(=O)OC)c1ccccc1COc1ccc(C2=NN(C(C)=O)C(c3ccc(Cl)cc3Cl)C2)cc1 (stereo not drawn) | < 60 | inactive | < 60 | inactive |  |  |  |  |  |  |  |
| CO/C=C(/C(=O)OC)c1ccccc1COc1ccc(C2=NN(C(C)=O)C(c3cc(OC)c(OC)c(OC)c3)C2)cc1 (stereo not drawn) | < 60 | inactive | < 60 | inactive |  |  |  |  |  |  |  |
| CO/C=C(/C(=O)OC)c1ccccc1COc1cccc(C2=NN(C(C)=O)C(c3ccc(C(C)(C)C)cc3)C2)c1 (stereo not drawn) | ≥ 80 | inactive | < 60 | inactive | inactive | inactive | 100 | ≥ 90 |  |  |  |
| CO/C=C(/C(=O)OC)c1ccccc1COc1ccc(C2=NN(C(C)=O)C(c3ccc(C(C)(C)C)cc3)C2)cc1 (stereo not drawn) | < 60 | inactive | < 60 | inactive |  |  |  |  |  |  |  |
| CO/N=C(/C(=O)OC)c1ccccc1COc1ccccc1C [KRESOXIM-METHYL] | ≥ 90 |  | 100 |  |  |  |  |  | 24.1 (≈ 76.9 µM) | 1.6 (≈ 5.11 µM) |  |
| CO/C=C(/C(=O)OC)c1ccccc1COc1cccc(C2=NN(C(C)=O)C(c3ccccc3F)C2)c1 (stereo not drawn) | ≥ 90 | inactive | < 60 | inactive |  |  |  |  |  |  |  |
| CO/C=C(/C(=O)OC)c1ccccc1COc1ccc(C2=NN(C(C)=O)C(c3cccc(F)c3)C2)cc1 (stereo not drawn) | < 60 | inactive | < 60 | inactive |  |  |  |  |  |  |  |
| CO/C=C(/C(=O)OC)c1ccccc1COc1ccc(C2=NN(C(C)=O)C(c3ccccc3F)C2)cc1 (stereo not drawn) | < 60 | inactive | < 60 | inactive |  |  |  |  |  |  |  |

| SMILES | inhibition in vivo at 200 µg/mL [1] [%] | inhibition (Botrytis cinerea) | inhibition in vivo at 200 µg/mL (Podosphaera fuliginea [2]) [%] | inhibition (Rhizoctonia solani) | mortality (Aphis medicaginis) | mortality (Nilaparvata lugens) | mortality at 500 µg/mL (Mythimna separata [3]) [%] | mortality at 500 µg/mL (Tetranychus cinnabarinus) [%] | IC50 [4] [µg/mL] | IC50 (Podosphaera fuliginea [5]) [µg/mL] | LC50 (Mythimna separata [6]) [µg/mL] |
| --- | --- | --- | --- | --- | --- | --- | --- | --- | --- | --- | --- |
| CCOc1ccc(C2CC(c3ccc(OCc4ccccc4/C(=C\OC)C(=O)OC)cc3)=NN2C(C)=O)cc1 (stereo not drawn) | < 60 | inactive | < 60 | inactive |  |  |  |  |  |  |  |
| CO/C=C(/C(=O)OC)c1ccccc1COc1cccc(C2=NN(C(C)=O)C(c3ccc(C)cc3)C2)c1 (stereo not drawn) | 100 | inactive | < 60 | inactive |  |  | ≥ 90 | < 60 |  |  |  |
| CO/C=C(/C(=O)OC)c1ccccc1COc1ccc(C2=NN(C(C)=O)C(c3ccc(C)cc3)C2)cc1 (stereo not drawn) | < 60 | inactive | < 60 | inactive |  |  |  |  |  |  |  |
| CO/C=C(/C(=O)OC)c1ccccc1COc1ccccc1C1=NN(C(C)=O)C(c2ccc(Cl)cc2)C1 (stereo not drawn) | < 60 | inactive | < 60 | inactive |  |  |  |  |  |  |  |
| CO/C=C(/C(=O)OC)c1ccccc1COc1ccc(C2=NN(C(C)=O)C(c3ccc(Br)cc3)C2)cc1 (stereo not drawn) | < 60 | inactive | < 60 | inactive |  |  |  |  |  |  |  |
| CCc1ccc(C2CC(c3ccccc3OCc3ccccc3/C(=C\OC)C(=O)OC)=NN2C(C)=O)cc1 (stereo not drawn) | 100 | inactive | < 60 | inactive | inactive | inactive | 100 | < 60 |  |  |  |
| CO/C=C(/C(=O)OC)c1ccccc1COc1ccccc1C1=NN(C(C)=O)C(c2cccc(OC)c2)C1 (stereo not drawn) | < 60 | inactive | < 60 | inactive |  |  |  |  |  |  |  |
| CCOCn1c(-c2ccc(Cl)cc2)c(C#N)c(Br)c1C(F)(F)F [CHLORFENAPYR] |  |  |  |  |  |  | 100 |  |  |  | 18.5 (≈ 45.4 µM) |
| CO/C=C(/C(=O)OC)c1ccccc1COc1ccccc1C1=NN(C(C)=O)C(c2ccc(Cl)c(Cl)c2)C1 (stereo not drawn) | < 60 | inactive | < 60 | inactive |  |  |  |  |  |  |  |
| CO/C=C(/C(=O)OC)c1ccccc1COc1ccc(C2=NN(C(C)=O)C(c3ccc4c(c3)OCO4)C2)cc1 (stereo not drawn) | 100 | inactive | < 60 | inactive |  |  |  |  |  |  |  |
| CO/C=C(/C(=O)OC)c1ccccc1COc1ccccc1C1=NN(C(C)=O)C(c2ccc(C)c(C)c2)C1 (stereo not drawn) | < 60 | inactive | < 60 | inactive |  |  |  |  |  |  |  |
| CO/C=C(/C(=O)OC)c1ccccc1COc1cccc(C2=NN(C(C)=O)C(c3cc(OC)c(OC)c(OC)c3)C2)c1 (stereo not drawn) | < 60 | inactive | < 60 | inactive |  |  |  |  |  |  |  |
| CO/C=C(/C(=O)OC)c1ccccc1COc1ccc(C2=NN(C(C)=O)C(c3cccc(OC)c3)C2)cc1 (stereo not drawn) | ≥ 70 | inactive | < 60 | inactive |  |  |  |  |  |  |  |
| CO/C=C(/C(=O)OC)c1ccccc1COc1ccc(C2=NN(C(C)=O)C(c3cccs3)C2)cc1 (stereo not drawn) | ≥ 70 | inactive | ≥ 60 | inactive |  |  |  |  |  |  |  |
| CO/C=C(/C(=O)OC)c1ccccc1COc1ccccc1C1=NN(C(C)=O)C(c2ccc(Br)cc2)C1 (stereo not drawn) | < 60 | inactive | < 60 | inactive |  |  |  |  |  |  |  |
| CO/C=C(/C(=O)OC)c1ccccc1COc1cccc(C2=NN(C(C)=O)C(c3ccccc3OC)C2)c1 (stereo not drawn) | ≥ 80 | inactive | ≥ 80 | inactive |  |  |  |  |  |  |  |
| CCc1ccc(C2CC(c3ccc(OCc4ccccc4/C(=C\OC)C(=O)OC)cc3)=NN2C(C)=O)cc1 (stereo not drawn) | 100 | inactive | < 60 | inactive |  |  |  |  |  |  |  |
| CO/C=C(/C(=O)OC)c1ccccc1COc1cccc(C2=NN(C(C)=O)C(c3ccccc3Br)C2)c1 (stereo not drawn) | 100 | inactive | < 60 | inactive |  |  |  |  |  |  |  |
